Here are results for 16 compounds from patent US20230183219A1, “CONDENSED SUBSTITUTED HYDROPYRROLES AS ANTAGONISTS OF THE MUSCARINIC ACETYLCHOLINE RECEPTOR M4” (Vanderbilt University, priority 2020, published 2023).

Molecules are shown by their SMILES.

For the test, the target named is T1, Human M4 (Homo sapiens, UniProt P08173).
T1 construct: Human or rat M4 cDNA, along with the chimeric G protein Gqi5, were transfected into Chinese hamster ovary (CHO-K1) cells; expressed in transfected cells; host or cells: CHO-K1 (Chinese hamster ovary, ATCC), stably co-expressing Gqi5
T1 sequence (P08173 1-479): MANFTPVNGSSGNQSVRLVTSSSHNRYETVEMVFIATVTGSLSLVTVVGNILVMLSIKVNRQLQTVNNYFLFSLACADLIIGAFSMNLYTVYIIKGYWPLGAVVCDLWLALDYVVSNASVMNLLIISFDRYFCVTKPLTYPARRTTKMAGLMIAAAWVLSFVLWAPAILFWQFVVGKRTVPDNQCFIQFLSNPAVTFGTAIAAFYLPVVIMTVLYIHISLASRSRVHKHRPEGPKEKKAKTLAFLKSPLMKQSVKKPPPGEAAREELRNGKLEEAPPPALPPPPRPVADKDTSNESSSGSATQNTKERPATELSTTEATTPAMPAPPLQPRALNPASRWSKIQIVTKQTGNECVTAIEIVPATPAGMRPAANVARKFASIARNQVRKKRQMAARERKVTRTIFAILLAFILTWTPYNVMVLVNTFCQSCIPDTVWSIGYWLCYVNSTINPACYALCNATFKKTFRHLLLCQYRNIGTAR
The test can be described thus: mAChR M4 cell-based functional assay (calcium flux, decrease of EC80 acetylcholine response). The conditions noted are these: for remaining activity at 30 µM / Human M4 Emin: % ACh maximum at 30 μM; for remaining activity at 30 µM: read-out: Human M4 Emin; for IC50: M4/Gqi5/CHO-K1 cells, decrease of response to EC80 acetylcholine. As to the method: Human or rat M4 cDNA, along with the chimeric G protein Gqi5, were transfected into Chinese hamster ovary (CHO-K1) cells purchased from the American Type Culture Collection using Lipofectamine2000. M4/Gqi5/CHO cells were grown in Ham's F-12 medium containing 10% heat-inactivated fetal bovine serum (FBS), 20 mM HEPES, 500 μg/mL G418 sulfate, and 200 μg/mL Hygromycin B.
For high throughput measurement of agonist-evoked increases in intracellular calcium, CHO-K1 cells stably expressing muscarinic receptors were plated in growth medium lacking G418 and hygromycin at 15,000 cells/20 μL/well in Greiner 384-well black-walled, tissue culture (TC)-treated, clear-bottom plates (VWR). Cells were incubated overnight at 37° C. and 5% CO2. The next day, cells were washed using an ELX 405 (BioTek) with assay buffer; the final volume was then aspirated to 20 μL. Next, 20 μL of a 2.3 μM stock of Fluo-4/acetoxymethyl ester (Invitrogen, Carlsbad, Calif.), prepared as a 2.3 mM stock in DMSO and mixed in a 1:1 ratio with 10% (w/v) Pluronic F-127 and diluted in assay buffer, was added to the wells and the cell plates were incubated for 50 min at 37° C. and 5% CO2. Dye was removed by washing with the ELX 405 and the final volume was aspirated to 20 μL. Compound master plates were formatted in a 10 point concentration-response curve (CRC) format (1:3 dilutions) in 100% DMSO with a starting concentration of 10 or 1 mM using a BRAVO liquid handler (Agilent). Test compound CRCs were then transferred to daughter plates (240 nL) using the Echo acoustic plate reformatter (Labcyte, Sunnyvale, Calif.) and then diluted into assay buffer (40 μL) to a 2×stock using a Thermo Fisher Combi (Thermo Fisher Scientific, Waltham, Mass.).
Calcium flux was measured using the Functional Drug Screening System (FDSS) 6000 or 7000 (Hamamatsu Corporation, Tokyo, Japan) as an increase in the fluorescent static ratio. Compounds were applied to cells (20 μL, 2×) using the automated system of the FDSS at 2 seconds into the protocol and the data were collected at 1 Hz. At 143 s, 10 μL of an EC20 concentration of the muscarinic receptor agonist acetylcholine was added (5×), followed by the addition of 12 μL of an EC80 concentration of acetylcholine at the 268 s time point (5×). Agonist activity was analyzed as a concentration-dependent increase in calcium mobilization upon compound addition. Positive allosteric modulator activity was analyzed as a concentration-dependent increase in the EC20 acetylcholine response. Antagonist activity was analyzed as a concentration-dependent decrease in the EC80 acetylcholine response; for the purposes of the tables herein, an IC50 (inhibitory concentration 50) was calculated as a concentration-dependent decrease of the response elicited by an EC80 concentration of acetylcholine. Concentration-response curves were generated using a four-parameter logistical equation in XLFit curve fitting software (IDBS, Bridgewater, N.J.) for Excel (Microsoft, Redmond, Wash.) or Prism (GraphPad Software, Inc., San Diego, Calif.) or the Dotmatics software platform (Dotmatics, Bishop's Stortford, UK).
Compounds were synthesized as described above. Activity (IC50 and Emin) was determined in the mAChR M4 cell-based functional assay as described above and the data are shown in Table 2.

Usually IC50 stands for the concentration at which inhibition is half-maximal. `[2H]C([2H])([2H])N(c1cc(C(F)(F)F)c(-c2cc(F)ccc2C)nn1)[C@H]1C[C@@H]2CN(CC3CCOCC3)C[C@@H]2C1` [Example 131, (3aR,5s,6aS)-N-(6-(5-fluoro-2-methylphenyl)-5-(trifluoromethyl)pyridazin-3-yl)-N-(methyl-d3)-2-((tetrahydro-2H-pyran-4-yl)methyl)octahydro-cyclopenta[c]pyrrol-5-amine]: the remaining activity at 30 µM amounted to 2% and the IC50 stood at 60.3 nM.

Take `[2H]C([2H])(C1CCOCC1)N1C[C@H]2C[C@H](Nc3nnc(-c4cc(C)ccc4C)cc3C(F)(F)F)C[C@H]2C1` [Example 98, (3aR,5s,6aS)-N-(6-(2,5-dimethylphenyl)-4-(trifluoromethyl)pyridazin-3-yl)-2-((tetrahydro-2H-pyran-4-yl)methyl-d2)octahydro-cyclopenta[c]pyrrol-5-amine]: the remaining activity at 30 µM was 3% and the IC50 worked out at 72.7 nM.

On to `[2H]C([2H])([C@@H]1CCOC1)N1C[C@H]2C[C@H](Nc3nnc(-c4cc(C)ccc4C)cc3C(F)(F)F)C[C@H]2C1` [Example 115, (3aR,5s,6aS)-N-(6-(2,5-dimethylphenyl)-4-(trifluoro-methyl)pyridazin-3-yl)-2-(((S)-tetrahydrofuran-3-yl)methyl-d2)octahydro-cyclopenta[c]pyrrol-5-amine], for which the remaining activity at 30 µM came to 3% and the IC50 is 176 nM.

Turning to `Cn1cc2cc(-c3cc(C#N)c(N[C@H]4C[C@@H]5CN(CC6CCCOC6)C[C@@H]5C4)nn3)ccc2n1` (single isomer, unassigned) [Example 158], the remaining activity at 30 µM stood at 14% and the IC50 was 15.7 nM.

Turning to `Fc1ccc(-c2cc(C(F)(F)F)c(N[C@H]3C[C@@H]4CN(CC5CCOCC5)C[C@@H]4C3)nn2)c(F)c1` [Example 82, (3aR,5s,6aS)-N-(6-(2,4-difluorophenyl)-4-(trifluoro-methyl)pyridazin-3-yl)-2-((tetrahydro-2H-pyran-4-yl)methyl)octahydro-cyclopenta[c]pyrrol-5-amine], the remaining activity at 30 µM was 3% and the IC50 is 286 nM.

For `Cc1ccc(F)cc1-c1cc(C#N)c(N[C@H]2C[C@@H]3CN(C[C@H]4CC5CCC4O5)C[C@@H]3C2)nn1` (stereo partly drawn) [Example 148, 3-(((3aR,5s,6aS)-2-(((2R)-7-oxabicyclo[2.2.1]heptan-2-yl)methyl)octahydro-cyclopenta[c]pyrrol-5-yl)amino)-6-(5-fluoro-2-methylphenyl)pyridazine-4-carbonitrile], the remaining activity at 30 µM turned out to be 2% and the IC50 was found to be 1.1 nM.

Take `Cc1c(F)cc(F)cc1-c1cc(C(F)(F)F)c(N[C@H]2C[C@@H]3CN(CC4CCOCC4)C[C@@H]3C2)nn1` [Example 46, (3aR,5s,6aS)-N-(6-(3,5-difluoro-2-methylphenyl)-4-(trifluoromethyl)pyridazin-3-yl)-2-((tetrahydro-2H-pyran-4-yl)methyl)octahydro-cyclopenta[c]pyrrol-5-amine]: the remaining activity at 30 µM was found to be 4% and the IC50 was 384 nM.

Turning to `CC(C)Oc1cc(F)c(-c2cc(C(F)(F)F)c(N[C@H]3C[C@@H]4CN(CC5CCOCC5)C[C@@H]4C3)nn2)cc1F` [Example 97, (3aR,5s,6aS)-N-(6-(2,5-difluoro-4-isopropoxyphenyl)-4-(trifluoromethyl)pyridazin-3-yl)-2-((tetrahydro-2H-pyran-4-yl)methyl)octahydro-cyclopenta[c]pyrrol-5-amine], the remaining activity at 30 µM was found to be 3% and the 50% inhibitory concentration (IC50) was 757 nM.

`Cc1ccc(F)cc1-c1cc(C(F)(F)F)c(N[C@H]2C[C@@H]3CN(CC4CCCCO4)C[C@@H]3C2)nn1` (single isomer, unassigned) [Example 118]: the remaining activity at 30 µM is 3% and the IC50 amounted to 12.5 nM.

As to `[2H]C([2H])(C1CCOCC1)N1C[C@H]2C[C@H](Nc3nnc(-c4ccc5c(c4)ncn5C)cc3C(F)(F)F)C[C@H]2C1` [Example 111, (3aR,5s,6aS)-N-(6-(1-methyl-1H-benzo[d]imidazol-5-yl)-4-(trifluoro-methyl)pyridazin-3-yl)-2-((tetrahydro-2H-pyran-4-yl)methyl-d2)octahydro-cyclopenta[c]pyrrol-5-amine], the remaining activity at 30 µM amounted to 3% and the IC50 came out at 136 nM.

In the case of `[2H][C@@]1(Nc2nnc(-c3ccc4nn(C)cc4c3)cc2C(F)(F)F)C[C@H]2CN(CC3CCOCC3)C[C@H]2C1` [Example 128, (3aR,5s,6aS)-N-(6-(2-methyl-2H-indazol-5-yl)-4-(trifluoro-methyl)pyridazin-3-yl)-2-((tetrahydro-2H-pyran-4-yl)methyl)octahydro-cyclopenta[c]pyrrol-5-d-5-amine], the remaining activity at 30 µM came out at 3% and the concentration for half-maximal inhibition (IC50) was found to be 13.2 nM.

For the compound `Cc1ccc(F)cc1-c1cc(C(F)(F)F)c(N[C@H]2C[C@@H]3CN(CC4CCCOC4)C[C@@H]3C2)nn1` (single isomer, unassigned) [Example 121], the “Human M4 Emin” value is recorded as 3% and the 50% inhibitory concentration (IC50) is 10.1 nM.

Consider `CC(C)c1ccc(F)c(-c2cc(C(F)(F)F)c(N[C@H]3C[C@@H]4CN(CC5CCOCC5)C[C@@H]4C3)nn2)c1` [Example 96, (3aR,5s,6aS)-N-(6-(2-fluoro-5-isopropylphenyl)-4-(trifluoromethyl)pyridazin-3-yl)-2-((tetrahydro-2H-pyran-4-yl)methyl)octahydro-cyclopenta[c]pyrrol-5-amine], for which the remaining activity at 30 µM turned out to be 3% and the half-inhibitory concentration (IC50) was 2040 nM.

For `Fc1ccc(F)c(-c2cc(C(F)(F)F)c(N[C@H]3C[C@@H]4CN(CC5CCOCC5)C[C@@H]4C3)nn2)c1` [Example 38, (3aR,5s,6aS)-N-(6-(2,5-difluorophenyl)-4-(trifluoromethyl)pyridazin-3-yl)-2-((tetrahydro-2H-pyran-4-yl)methyl)octahydro-cyclopenta[c]pyrrol-5-amine], the remaining activity at 30 µM is 3% and the IC50 was 207 nM.

With `Cc1ccc(F)cc1-c1cc(C(F)(F)F)c(N[C@H]2C[C@@H]3CN(CC4CCCOC4)C[C@@H]3C2)nn1` (stereo partly drawn) [Example 28, (3aR,5s,6aS)-N-(6-(5-fluoro-2-methylphenyl)-4-(trifluoromethyl)pyridazin-3-yl)-2-((tetrahydro-2H-pyran-3-yl)methyl)octahydro-cyclopenta[c]pyrrol-5-amine], the remaining activity at 30 µM came to 4% and the IC50 is 9.5 nM.

On to `Cn1cc2cc(-c3nnc(N[C@H]4C[C@@H]5CN(CC6CCOCC6)C[C@@H]5C4)cc3C(F)(F)F)ccc2n1` [Example 1, (3aR,5s,6aS)—N-(6-(2-Methyl-2H-indazol-5-yl)-5-(trifluoromethyl)pyridazin-3-yl)-2-((tetrahydro-2H-pyran-4-yl)methyl)octahydrocyclopenta[c]pyrrol-5-amine], for which the “Human M4 Emin” value came out at 2% and the IC50 is 5.63 nM.
